{
  "source": "patent US11477967B2",
  "about": "“Microfluidic device, system and methods thereof for measuring and recording electrical signals from a pool of multiple nematodes” (NemaMetrix Inc., priority 2018, dated 2022)",
  "type_in_all_cases": "in vivo, C. elegans",
  "key": {"[1]": {"system": "pool of multiple nematodes", "assay": "composite EPG from a pool of multiple nematodes, microfluidic device 100 / system 200", "settings": "approximately 25 nematodes between electrodes, serotonin M9 buffer solution (10 mM serotonin); peak absent in normal M9 buffer; FIG. 4C", "procedure": "(§1) To obtain nematodes of a consistent size that were compatible with the dimensions of the recording channel 120, we utilized a common procedure to obtain a large number of age synchronized eggs. Eggs were deposited in a culture plate containing food and cultivated at 20 C for 3 days, yielding a large population of young adult nematodes.\nTo prepare nematodes for recording, 2 mL of “normal M9 buffer solution,” defined in Table 3, was added to a culture plate containing young adult nematodes grown from synchronized eggs. The plate was swirled to lift nematodes into the solution and the contents were poured into a 2 mL Eppendorf tube. Nematodes were cleaned of adherent bacteria and debris by 5 cleaning cycles each of which involved pelleting nematodes in a centrifuge (1.2 g, 30 sec), drawing off the supernatant, and resuspending in M9 buffer. To stimulate pharyngeal pumping, the final resuspension used “serotonin M9 buffer solution” which contained 10 mM serotonin in addition to the constituents in Table 3. […]\nTwo lines of evidence indicate that the recorded activity represents pharyngeal pumping."}, "[2]": {"system": "nematodes", "assay": "single-nematode EPG recordings (ScreenChip System) and synthetic composite EPG summed from them", "procedure": "as §1\nTo prepare nematodes for recording, 2 mL of “normal M9 buffer solution,” defined in Table 3, was added to a culture plate containing young adult nematodes grown from synchronized eggs. The plate was swirled to lift nematodes into the solution and the contents were poured into a 2 mL Eppendorf tube. Nematodes were cleaned of adherent bacteria and debris by 5 cleaning cycles each of which involved pelleting nematodes in a centrifuge (1.2 g, 30 sec), drawing off the supernatant, and resuspending in M9 buffer. […]\nAccording to circuit theory, (i) the waveform of a composite EPG recorded at electrodes 135 and 145 should be the sum of the voltage differences generated by each nematode at its unique location and orientation with respect to the electrodes and other nematodes, and (ii) the peak frequency of the waveform's power spectrum should represent the average pumping frequency of the population of nematodes between the electrodes. […]"}, "[3]": {"system": "pool of multiple nematodes", "assay": "composite EPG from a pool of multiple nematodes, microfluidic device 500 / system 600, Solution A versus Solution B", "settings": "same pool of nematodes; Solution A normal M9 buffer 16 min, Solution B serotonin M9 buffer 25 min; FIG. 7C", "text": "To obtain nematodes of a consistent size that were compatible with the dimensions of the recording channel 515, we used the method of Example 2. Alternative methods using filters can also be used to obtain an age/size synchronized population of nematodes for use. See US Patent Publ. No. 2019/0090458.\nTo prepare nematodes for recording, we used the method of Example 2, except that the final resuspension used “normal M9 buffer solution,” defined in Table 3.\nFor filling the microfluidic device, we used the method of Example 2, except that the syringe and tubing were filled with “normal M9 buffer solution.”\nAt the end of this recording, the normal M9 buffer solution was replaced with Solution B, serotonin M9 buffer solution disclosed in Example 1, without dislodging the original pool of nematodes. Replacement was accomplished by exchanging the syringe and tubing filled with normal M9 buffer solution for a syringe and tubing filled with serotonin M9 buffer solution. […]\nThe center frequency of this peak is within the expected range of pharyngeal pumping frequency. […] However, as the same population of nematodes was recorded under conditions of the two different buffer solutions in FIG. 7C, but not in FIG. 4C, FIG. 7C establishes, in addition, that the system 600 can be used to measure the effect of drugs or other test compounds on pharyngeal pumping. […]"}},
  "data": [
    {"smiles": "NCCc1c[nH]c2ccc(O)cc12", "note": "[serotonin]", "values": [
      {"measurement": "peak of power spectrum of composite EPG", "setting": "[1]", "result": 5.6, "unit": "Hz"},
      {"measurement": "average pumping frequency", "setting": "[2]; 22 nematodes, single-nematode EPGs in serotonin M9 buffer solution (10 mM serotonin), 10-14 min, ± SEM", "result": "4.9±0.13", "unit": "Hz"},
      {"measurement": "peak frequency of power spectrum of synthetic (in silico) composite EPG recording", "setting": "[2]; sum of all 22 single-nematode EPG measurements in serotonin M9 buffer solution (10 mM serotonin), FIG. 3E", "result": 5.1, "unit": "Hz"},
      {"measurement": "center frequency of peak of difference trace between power spectra of Solution B and Solution A", "setting": "[3]", "result": 5, "unit": "Hz"}
    ]}
  ]
}
